Values quoted from earlier work in patent US9339504B2, “Orally disintegrating tablet compositions of lamotrigine” (ADARE Pharmaceuticals, Inc., priority 2007, dated 2016).
Values after ≈ are worked out from the molar mass of the structure shown. Where two headings read alike, the source gives them in different places.

In the case of Nc1nnc(-c2cccc(Cl)c2Cl)c(N)n1 [Lamotrigine, 3,5-diamino-6-(2,3,-dichlorophenyl)-1,2,4-triazine], the “solubility in 0.01N HCl” value (0.01N HCl, 25° C.) is listed as ~3 mg/mL (≈ 11.7 mM), the “solubility in 0.1N HCl” value (0.1N HCl, 25° C.) is listed as ~4 mg/mL (≈ 15.6 mM) and the solubility in water (25° C.) is listed as ~0.17 mg/mL (≈ 0.664 mM). For the same compound, the solubility in water (37° C.) was ~0.57 mg/mL (≈ 2.23 mM).
